Earlier results on three compounds are cited in patent publication US20220372042A1, “CONDENSED HETEROCYCLES AS BCL-2 INHIBITORS” (Newave Pharmaceutical Inc., priority 2019, published 2022).

For data set [1] the following is noted: in vivo.
The subject of the next data set is established tumors. Conditions: mouse, in vivo.
The test system of a further data set is SCLC H146 cell line. Conditions: read-out: IC50 against SCLC H146 cell line.
The next data set has as its system H345 xenograft. Particulars: 100 mg/kg/day, H345 xenograft model.
In the next data set the test system is circulating platelets. Particulars: patients, clinical trial.
The target in another data set is T1, Bcl-w (Homo sapiens, UniProt Q92843).
T1 sequence (Q92843 1-193): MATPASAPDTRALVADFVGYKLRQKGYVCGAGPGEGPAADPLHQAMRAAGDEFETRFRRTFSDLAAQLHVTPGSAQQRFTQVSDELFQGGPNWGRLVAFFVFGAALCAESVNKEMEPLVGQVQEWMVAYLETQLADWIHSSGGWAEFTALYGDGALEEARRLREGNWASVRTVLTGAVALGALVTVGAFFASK

The test system of data set [2] is xenograft models of small-cell lung cancer and acute lymphoblastic leukemia. Conditions: single agent.
The next data set deals with RS4; 11 xenografts. Conditions: single dose of 100 mg/kg.
The subject of data set [3] is DoHH2, Granta-519 xenografts. Conditions: single agent or in combination with Bendamustine and other agents.
For a further data set, the system named is CLL. Conditions: average; read-out: average EC50 apoptosis in CLL.
For data set [4], the system named is CLL who have 17p deletion. Conditions: CLL with 17p deletion.

Take `CN(C)CC[C@H](CSc1ccccc1)Nc1ccc(S(=O)(=O)NC(=O)c2ccc(N3CCN(Cc4ccccc4-c4ccc(Cl)cc4)CC3)cc2)cc1[N+](=O)[O-]` [ABT-737]: the aqueous solubility entry is recorded as “low aqueous solubility”. The oral bioavailability entry in data set [1] is reported as “not orally bioavailable”. Besides, the “efficacy in animal models” value with established tumors is “improves survival, causes regression of established tumors, and produces cures in a high percentage of the mice”.

The IC50 is the concentration needed to halve the response being measured. A word on the TGI: it is the reduction of tumour growth relative to the control group. The term Ki denotes the equilibrium dissociation constant of an inhibitor or competing ligand from its target. As to `CC1(C)CCC(c2ccc(Cl)cc2)=C(CN2CCN(c3ccc(C(=O)NS(=O)(=O)c4ccc(N[C@H](CCN5CCOCC5)CSc5ccccc5)c(S(=O)(=O)C(F)(F)F)c4)cc3)CC2)C1` [ABT-263], the IC50 in the data set on SCLC H146 cell line was 110 nM. Moreover, in the data set with H345 xenograft, the TGI is on record as 80% and the “treated tumors indicating at least a 50% reduction in tumor volume” value was 20%. Also, in the data set with circulating platelets, the “number of circulating platelets” value is listed as “rapid, concentration-dependent decrease”. Besides, the Ki on Bcl-w is ≤ 1 nM. Further, in data set [2], the “tumor response after oral administration alone” value is on record as “complete tumor regressions”.

Usually EC50 stands for the concentration needed to bring the measured effect to its halfway point. Turning to `CC1(C)CCC(CN2CCN(c3ccc(C(=O)NS(=O)(=O)c4ccc(NCC5CCOCC5)c([N+](=O)[O-])c4)c(Oc4cnc5[nH]ccc5c4)c3)CC2)=C(c2ccc(Cl)cc2)C1` [ABT-199], in the data set with RS4; 11 xenografts, the “maximal tumor growth inhibition” value is listed as 95% and the tumor growth delay is recorded as 152%. For the same compound, the concentration for a half-maximal effect (EC50) with RS4; 11 cells was 8 nM. Moreover, the xenograft growth entry in [3] is “inhibits xenograft growth”. Further, the EC50 in the data set with CLL is 3 nM. For the same compound, the clinical efficacy entry in data set [4] is on record as “highly efficacious”.
